# Results reported in patent US5593678A, “Protection of teleost fish” (University of Georgia Research Foundation, priority 1994, dated 1997).
# “Also recorded” adds a separate entry of the source. Where two headings read alike, the source gives them in different places.
# What was measured:
# [1] = tested on: NCC (lysis of IM-9 target cells); test: Costimulation assay: NCC cytotoxicity (51Cr release) with A23187 or mab 5C6; assay type: cell-based, channel catfish (Ictalurus punctatus); conditions: for Percentage specific release: E:T 40:1, 10^-4 M A23187, 60 μM H7 and HA1004, 0.5 μg/ml genistein, 1:3 dilution of tissue culture supernatant, media control 20.6; for activity at 0.5 µg/mL: Ictalurus punctatus, IM-9, 2 h; for influence of pretreatment on A23187 activation: pretreatment prior to A23187
# Description: Incubation was two hours and cells were either washed or not washed before addition to ^51 Cr-labeled IM-9 target cells (4- to 6-hour cytotoxicity assays).
# To further investigate this inhibitory effect, a costimulus experiment was done using a calcium ionophore, e.g., A23187, combined with the various inhibitors and activators of NCC activity. Pretreatment of NCC with A23187 produced an almost identical increase in cytotoxicity regardless of the identity of the first treatment.
# In a second costimulus experiment mab 5C6 was used (instead of A23187) to activate cytotoxicity (Table 6).
# NCC = conditions: cited from earlier work
# [2] = tested on: NCC (lysis of IM-9 target cells); test: NCC cytotoxicity (51Cr release) after treatment with protein kinase inhibitors; assay type: cell-based, channel catfish (Ictalurus punctatus); conditions: for inhibition at 30 µM / inhibition at 60 µM: E:T 80:1
# Description: To prepare NCC, fish were lightly anesthetized with ethyl m-aminobenzoate (Sigma Chemical Co.) in water and sacrificed.
# IM-9 target cells were used in cytotoxicity assays. […] Cells were grown in stationary suspension cultures and were maintained at approximately 1×10^6 cells/ml. […]
# [3] = tested on: NCC membrane proteins (tyrosine phosphorylation); test: Tyrosine phosphorylation of NCC membrane proteins following mab 5C6 activation (Western blot); assay type: cell-based, channel catfish (Ictalurus punctatus); conditions: NCC pretreated two hours with inhibitor; 100 μg/ml genistein or 30 μM HA1004
# Description: FIG. 1. Tyrosine phosphorylation of NCC membrane proteins following activation by mab 5C6. NCC were resuspended at 500×10^6 /ml and 200 μl aliquots were incubated at 37° C. with either 125 μl ammonium sulfate precipitate mab 5C6 (left panel) or an isotype control (right panel). At the indicated timed intervals, the reactions were terminated by addition of 325 μl of 2×lysis buffer. Lysates were immunoprecipitated with mab 4G10, electrophoresed on 11% SDS-PAGE, blotted onto nitrocellulose, and probed with mab 4G10. Molecular weight markers are indicated by the arrows.
# FIG. 2. Tyrosine phosphorylation of Percoll-enriched NCC. Fish NCC were centrifuged for 15 minutes at 500 g on a 45.5% Percoll cushion. The cells at the interphase were harvested, washed, and treated with mab 5C6 for 0 and 20 sec before addition of 2×lysis buffer. Lysates were electrophoresed, blotted on nitrocellulose, and probed with mab 4G10.
# FIG. 3. Effects of genistein on tyrosine phosphorylation in fish NCC. Fish NCC were incubated with media, genistein (100 μg/ml), or HA1004 (30 μM) for two hours prior to activation for zero time with mab 5C6 (left lane) and 40 sec with either mab 5C6 (middle lane) or an irrelevant IgM isotype control (right lane). Reactions were stopped by addition of lysis buffer and lysates were processed as explained in the legends to FIGS. 1 and 2. […]
# [4] = tested on: protein tyrosine kinase (PTK); conditions: NK cells; cited from earlier work
# [5] = tested on: serine/threonine phosphorylation; conditions: NK cells; cited from earlier work
# human NK cells = conditions: same concentration of H-7; cited from earlier work
# [6] = tested on: cyclic nucleotide dependent kinases; conditions: cited from earlier work
compound,measurement,setting,value
CNc1ccc2oc(C[C@H]3O[C@@]4(CC[C@H]3C)O[C@H]([C@H](C)C(=O)c3ccc[nH]3)[C@H](C)C[C@H]4C)nc2c1C(=O)O [A23187],Percentage specific release,[1],81.0%
same,activation of NCC cytotoxicity,[1]; Table 5,strong activation of NCC cytotoxicity
same,ability to overcome kinase inhibitor inhibition of NCC cytotoxicity,[1]; after H-7 or genistein,able to overcome the inhibition produced by treatment of NCC with H-7 or genistein
same,"cytotoxicity of NCC (words, prior work)",NCC,"activated NCC cytotoxicity and increased ""receptor"" expression"
"O=c1c(-c2ccc(O)cc2)coc2cc(O)cc(O)c12 [Genistein, genistein]",inhibition of NCC cytotoxicity,[2],almost completely inhibited NCC activity in a dose-dependent fashion
same,inhibition at 142 µg/mL,"[2]; Ictalurus punctatus, IM-9, 142 μg/ml, read-out: inhibition of cytotoxicity",~100%
same,inhibition at 14.2 µg/mL,"[2]; Ictalurus punctatus, 14.2 μg/ml, E:T 20:1, 6 hours, read-out: Percentage inhibition (NCC lysis of IM-9)",55.5%
same,inhibition at 28.4 µg/mL,"[2]; Ictalurus punctatus, 28.4 μg/ml, E:T 20:1, 6 hours, read-out: Percentage inhibition (NCC lysis of IM-9)",75.9%
same,inhibition at 57 µg/mL,"[2]; Ictalurus punctatus, 57.0 μg/ml, E:T 20:1, 6 hours, read-out: Percentage inhibition (NCC lysis of IM-9)",64.9%
same,inhibition at 142 µg/mL,"[2]; Ictalurus punctatus, 142.0 μg/ml, E:T 20:1, 6 hours, read-out: Percentage inhibition (NCC lysis of IM-9)",94%
same,inhibition of cytotoxicity,[2]; between approximately 14 and approximately 57 μg/ml,greater than 50%
same,Percentage specific release,[1],11.0%
same,activity at 0.5 µg/mL,"[1]; 4 × 10^6 NCC/ml, mabs 1:50 dilution, H-7, HA1004 60 μM, genistein 0.5 μg/ml, read-out: Percentage of control (E:T ratio) 40%",38.9%
same,activity at 0.5 µg/mL,"[1]; mabs 1:50 dilution, H-7, HA1004 60 μM, genistein 0.5 μg/ml, read-out: Percentage of control (E:T ratio) 20%",35.5%
same,influence of pretreatment on A23187 activation,[1],did not produce any reductions in A23187 activation; also recorded: did not appear to be additive and did not influence the final level of activation
same,specific protein phosphorylation after mab 5C6,[3],Specific protein phosphorylation was not observed
same,PTK activity,[4],inhibit PTK activity
same,serine/threonine phosphorylation,[5],no effect on serine/threonine phosphorylation
"CC1CNCCN1S(=O)(=O)c1cccc2cnccc12.Cl.Cl (stereo not shown) [H-7, 1-(5-isoquinolinesulfonyl)-2-methylpiperazine di-HCl]",inhibition at 30 µM,"[2]; Ictalurus punctatus, 1 h, read-out: Percentage inhibition (NCC lysis of IM-9), 30 μM, 60 min",12.5%
same,inhibition at 60 µM,"[2]; Ictalurus punctatus, 1 h, read-out: Percentage inhibition (NCC lysis of IM-9), 60 μM, 60 min",10.2%
same,inhibition at 30 µM,"[2]; Ictalurus punctatus, 2 h, read-out: Percentage inhibition (NCC lysis of IM-9), 30 μM, 120 min",31%
same,inhibition at 60 µM,"[2]; Ictalurus punctatus, 2 h, read-out: Percentage inhibition (NCC lysis of IM-9), 60 μM, 120 min",12.6%
same,inhibition at 30 µM,"[2]; Ictalurus punctatus, 3 h, read-out: Percentage inhibition (NCC lysis of IM-9), 30 μM, 180 min/wash",34.2%
same,inhibition at 30 µM,"[2]; Ictalurus punctatus, 3 h, read-out: Percentage inhibition (NCC lysis of IM-9), 30 μM, 180 min",37.8%
same,inhibition at 60 µM,"[2]; Ictalurus punctatus, 3 h, read-out: Percentage inhibition (NCC lysis of IM-9), 60 μM, 180 min/wash",34.5%
same,inhibition at 60 µM,"[2]; Ictalurus punctatus, 3 h, read-out: Percentage inhibition (NCC lysis of IM-9), 60 μM, 180 min",35.7%
same,level of inhibition of NCC activity,[2]; summary of Table 1,approximately 35%
same,effect of removal (washing) of inhibitor on cytotoxicity,[2]; washed prior to addition of target cells,did not substantially affect the cytotoxicity
same,Percentage of control (E:T ratio) 40%,"[1]; 4 × 10^6 NCC/ml, mabs 1:50 dilution, H-7, HA1004 60 μM, genistein 0.5 μg/ml, 120 min",37.5%
same,Percentage specific release,[1],9.1%
same,Percentage of control (E:T ratio) 20%,"[1]; mabs 1:50 dilution, H-7, HA1004 60 μM, genistein 0.5 μg/ml, 120 min",53.9%
same,influence of pretreatment on A23187 activation,[1]; di-HCl,did not produce any reductions in A23187 activation; also recorded: did not appear to be additive and did not influence the final level of activation
same,inhibition of human NK cells,human NK cells,60-90%
same,inhibition of cyclic nucleotide dependent kinases,[6],to a lesser extent it inhibits cyclic nucleotide kinases
